# Source: patent US12637424B2, “Pharmaceutical salt of an arylpyrrole derivative” (SENTINEL ONCOLOGY LIMITED, priority 2020, dated 2026)
# Structures can show the parent of a compound that is named as a salt.
# Legend:
# Assay type in all cases: physicochemical
# [1] = Gravimetric vapour sorption (GVS)
# Experimental: The sample was maintained at a constant temperature (25° C.) by the instrument controls. The humidity was controlled by mixing streams of dry and wet nitrogen, with a total flow of 250 ml·min-1. The instrument was verified for relative humidity content by measuring three calibrated Rotronic salt solutions (10-50-88%). The weight change of the sample was monitored as a function of humidity by a microbalance (accuracy+/−0.005 mg). A defined amount of sample was placed in a tared mesh stainless steel basket under ambient conditions. A full experimental cycle typically consisted of three scans (sorption, desorption and sorption) at a constant temperature (25° C.) and 10% RH intervals over a 0-90% range (60 minutes for each humidity level).
# [2] = Solubility in (2-hydroxypropyl)-β-cyclodextrin 20% w/v in water; conditions: continuous stirring, gentle warming to 40° C.
# [3] = Powder density and flowability
# Experimental: The compound was allowed to settle prior to weighing with approximately 40 mL volume occupied and bulk density calculated. […] The tap density was then calculated.
# [4] = Gravimetric solubility in water; conditions: thermodynamic from solid, gravimetric solubility protocol
# Experimental: The solubility in water of the salts was measured using a gravimetric solubility protocol. 1 ml of water was charged into crystallisation tubes. The solid was weighed into a tared glass vial, added in portions to the solutions and the vial weighed after each addition until a hazy solution was observed. The amount in mg was then calculated to give the solubility in mg/ml.
# [5] = ICH storage stability
# From the text: The stability protocol followed ICH guidelines. […] Following storage, these samples were removed from the stability cabinet and analysed for appearance, water content by Karl Fischer titration (KF), and purity. No change in water content or chemical purity by HPLC was observed over six months. […]
# [6] = calculated from bulk and tap density
Compound,"moisture content before the first desorption ([1]; GVS, 25° C.)","moisture taken up between 80 and 90% RH ([1]; GVS, 25° C., 80-90% RH)",concentration achieved in solution [2],powder bulk density [3],tap density [3],"Carr's index [3, 6]","Hausner ratio [3, 6]",flowability ([3]; descriptor from Carr's index and Hausner ratio),solubility [4],Appearance ([5]; T = 0),Chemical purity by HPLC ([5]; T = 0),Water content by KF ([5]; T = 0),"Appearance ([5]; T = 6 month, 25° C./60% RH)","Chemical purity by HPLC ([5]; T = 6 month, 25° C./60% RH)","Water content by KF ([5]; T = 6 month, 25° C./60% RH)","Appearance ([5]; T = 6 month, 40° C./75% RH)","Chemical purity by HPLC ([5]; T = 6 month, 40° C./75% RH)","Water content by KF ([5]; T = 6 month, 40° C./75% RH)","change in water content or chemical purity by HPLC ([5]; over six months, 25° C./60% RH and 40° C./75% RH)",moisture uptake (surface moisture) ([1]; at 90% RH)
"CN(C)CCNC(=O)c1ccc(-c2ccc(-c3ccc(Cl)cc3)n2-c2ccccc2C(F)(F)F)cc1 (single isomer, unassigned) [Atropisomer A-2 Tartrate Pattern B salt]",ca. 0.3%,ca. 0.8%,> 100000 µg/mL,0.55 g/mL,~0.659 g/mL,16.5%,1.19,fair,7500 µg/mL,A white solid.,99.60%,0.2% w/w,A white solid.,99.60%,0.2% w/w,A white solid.,99.60%,0.2% w/w,No change,
"CN(C)CCNC(=O)c1ccc(-c2ccc(-c3ccc(Cl)cc3)n2-c2ccccc2C(F)(F)F)cc1 [(+)-L-tartaric acid salt, (R)-4-[5-(4-chlorophenyl)-1-[2-(trifluoromethyl)-phenyl]pyrrol-2-yl]-N-[2-(dimethylamino)-ethyl]benzamide (+)-L-tartaric acid salt]",,,,,,,,,,,,,,,,,,,,< 1%
"CN(C)CCNC(=O)c1ccc(-c2ccc(-c3ccc(Cl)cc3)n2-c2ccccc2C(F)(F)F)cc1 (single isomer, unassigned) [Atropisomer A-2 Tartrate Pattern A salt]",,,,,,,,,6700 µg/mL,,,,,,,,,,,
